These results are taken from patent US12655465B2, “System for detecting and characterizing a microorganism” (Q-Linea AB, priority 2016, dated 2026).

≈ marks a conversion by molar mass, not a printed value. Where only a bound is given, the exact number is not on record here.

For experiment [1], the system named is E. coli. Kind of experiment: AST by flow cytometry type counting of individual bacteria (Aquila 400), MIC from differential growth. It is filed as cell-based. To be noted: Aquila 400 counting; for MIC: Escherichia coli. As to the method: The sample was enriched for bacteria and at the same time the culture media was changed, in this case to Mueller-Hinton media (MH-media). E. coli bacteria were recovered via filtration through a 0.2 μm filter and the recovered bacteria were resuspended in MH-media to a concentration of approximately 10^8 CFU/ml in Müller Hinton broth before being diluted to approximately 10^6 CFU/ml in Müller Hinton Broth. Antibiotic solutions were prepared in a series of 2:1 serial dilutions in Müller Hinton broth at 10× test concentrations. The range of antibiotic concentrations was chosen based on identity of the bacteria and the antibiotic. As the microorganism identified in Example 1 was E. coli in this case the following antibiotics were selected for use in the antimicrobial susceptibility test: Ciprofloxacin, Piperacillin+Tazobactam, Cefotaxime, Ceftazidim, Meropenem and Gentamicin. A series of eight different concentrations was selected based on known clinical MIC values. Eight sample tubes containing 100 μl antibiotic solution at eight different concentrations and 800 μl Müller Hinton broth were prepared. One additional tube contains 900 μl Müller Hinton broth and no antibiotic as positive control. 100 μl bacterial suspension (10^6 CFU/ml) was added to all nine tubes. A negative control sample comprising 1000 μl Müller Hinton broth (i.e., no bacteria) is prepared as negative control. All tubes were incubated at 35° C. and samples were taken after 0, 4, 6 and 24 hours. Bacterial samples were prepared for counting as in Example 2. Bacterial AST profiles were determined using a flow cytometry based counting of individual bacteria in an Aquila 400™ instrument (Q-linea AB, Sweden). Aquila 400 analysis was performed using the alexa 488™ laser. It was evident from the analysis performed at different time points that 4 hours was sufficient for detecting differential bacterial growth at the different concentration of antibiotics and thus to determine antibiotic susceptibility. Shorter times have been shown in the literature so this is not unexpected. MIC values for each antibiotic at different time points and cut-off values were calculated based on the differential bacterial growth. Values obtained by this method compared favorably with previously reported clinical MIC values and are shown below.

Experiment [2] concerns E. coli. To be noted: determined by another lab; cited from earlier work.
The test system of experiment [3] is E. coli. Nature of the experiment: MIC with Macrobroth dilution. To be noted: reference method; for MIC: Escherichia coli. The experiment is classed as cell-based.
[4] abbreviates: 4 h, cut-off 20%, 4 hours, read-out: MIC, 4 hours.
Setting [5] is: 6 h, cut-off 15%, 6 hours, read-out: MIC, 6 hours.
The mark [6] stands for this setting: 6 h, cut-off 20%, 6 hours, read-out: MIC, 6 hours.
Setting [7] is: 24 h, cut-off 5%, 24 hours, read-out: MIC, 24 hours.
The mark [8] stands for this setting: 24 h, cut-off 10%, 24 hours, read-out: MIC, 24 hours.
[9] abbreviates: 24 h, cut-off 15%, 24 hours, read-out: MIC, 24 hours.
Where [10] appears, read: 24 h, cut-off 20%, 24 hours, read-out: MIC, 24 hours.
The mark [11] stands for this setting: 4 h, cut-off 5%, 4 hours incubation at 35° C. in Müller Hinton broth, read-out: MIC, 4 hours.
The mark [12] stands for this setting: 4 h, cut-off 10%, 4 hours, read-out: MIC, 4 hours.
The mark [13] stands for this setting: 4 h, cut-off 15%, 4 hours, read-out: MIC, 4 hours.
Where [14] appears, read: 6 h, cut-off 5%, 6 hours, read-out: MIC, 6 hours.
The mark [15] stands for this setting: 6 h, cut-off 10%, 6 hours, read-out: MIC, 6 hours.
[16] abbreviates: cut-off 5%, 4 hours incubation at 35° C. in Müller Hinton broth.

Regarding `C[C@@H](O)[C@H]1C(=O)N2C(C(=O)O)=C(S[C@@H]3CN[C@H](C(=O)N(C)C)C3)[C@H](C)[C@H]12` [Meropenem], the MIC in experiment [1] (setting [4]) was determined as 0.5 µg/mL (≈ 1.3 µM); in experiment [1] (setting [5]), 0.5 µg/mL (≈ 1.3 µM); in experiment [1] (setting [6]) it was 0.25 µg/mL (≈ 0.652 µM); in experiment [1] (setting [7]), 0.5 µg/mL (≈ 1.3 µM); in experiment [1] (setting [8]), 0.5 µg/mL (≈ 1.3 µM); in experiment [1] (setting [9]), 0.25 µg/mL (≈ 0.652 µM). For the same molecule, the MIC in experiment [1] (setting [10]) was 0.125 µg/mL (≈ 0.326 µM); in experiment [3], 0.25 to 0.5 µg/mL (≈ 0.652 to 1.3 µM). Moreover, in experiment [2], the “MIC with E-test” value was no more than 0.25 µg/mL.
`O=C(O)c1cn(C2CC2)c2cc(N3CCNCC3)c(F)cc2c1=O` [Ciprofloxacin]: the MIC in experiment [1] (setting [11]) was determined as 0.016 µg/mL (≈ 0.0483 µM); in experiment [1] (setting [12]), 0.008 µg/mL (≈ 0.0241 µM); in experiment [1] (setting [13]), 0.008 µg/mL (≈ 0.0241 µM); in experiment [1] (setting [4]), 0.008 µg/mL (≈ 0.0241 µM); in experiment [1] (setting [14]) it was 0.008 µg/mL (≈ 0.0241 µM); in experiment [1] (setting [15]) it was 0.008 µg/mL (≈ 0.0241 µM). Moreover, the MIC in experiment [1] (setting [5]) was found to be 0.008 µg/mL (≈ 0.0241 µM); in experiment [1] (setting [6]), 0.004 µg/mL (≈ 0.0121 µM); in experiment [1] (setting [7]), 0.008 µg/mL (≈ 0.0241 µM); in experiment [1] (setting [8]) it was 0.008 µg/mL (≈ 0.0241 µM); in experiment [1] (setting [9]), 0.008 µg/mL (≈ 0.0241 µM); in experiment [1] (setting [10]) it was 0.008 µg/mL (≈ 0.0241 µM). In addition, the lowest concentration to inhibit growth in experiment [3] (MIC) was 0.016 µg/mL (≈ 0.0483 µM). Also, in experiment [2], the “MIC with E-test” value is no more than 0.03 µg/mL.
For the molecule Gentamicin, the “MIC, 4 hours” value in experiment [1] (setting [16]) is 1 µg/mL; in experiment [1] (cut-off 10%, 4 hours), 0.5 µg/mL; in experiment [1] (cut-off 15%, 4 hours), 0.5 µg/mL; in experiment [1] (cut-off 20%, 4 hours), 0.5 µg/mL. Moreover, the “MIC, 6 hours” value in experiment [1] (cut-off 5%, 6 hours) worked out at 0.5 µg/mL; in experiment [1] (cut-off 10%, 6 hours), 0.5 µg/mL; in experiment [1] (cut-off 15%, 6 hours) it was 0.5 µg/mL; in experiment [1] (cut-off 20%, 6 hours) it was 0.5 µg/mL. The “MIC, 24 hours” value in experiment [1] (cut-off 5%, 24 hours) is 1 µg/mL; in experiment [1] (cut-off 10%, 24 hours) it was 1 µg/mL; in experiment [1] (cut-off 15%, 24 hours) it was 1 µg/mL; in experiment [1] (cut-off 20%, 24 hours) it was 1 µg/mL. The “MIC with E-test” value in experiment [2] is 1 µg/mL. Further, in experiment [3], the “MIC with Macrobroth dilution” value fell in the range of 0.5 to 1 µg/mL.
`CC(C)(O/N=C(\C(=O)N[C@@H]1C(=O)N2C(C(=O)[O-])=C(C[n+]3ccccc3)CS[C@H]12)c1csc(N)n1)C(=O)O` [Ceftazidime]: the MIC came out at 0.25 µg/mL (≈ 0.457 µM) in experiment [1] (setting [11]); 0.25 µg/mL (≈ 0.457 µM) in experiment [1] (setting [12]); 0.125 µg/mL (≈ 0.229 µM) in experiment [1] (setting [13]); 0.125 µg/mL (≈ 0.229 µM) in experiment [1] (setting [4]); 0.125 µg/mL (≈ 0.229 µM) in experiment [1] (setting [14]); 0.125 µg/mL (≈ 0.229 µM) in experiment [1] (setting [15]). For the same molecule, the MIC in experiment [1] (setting [5]) turned out to be 0.125 µg/mL (≈ 0.229 µM); in experiment [1] (setting [6]), 0.125 µg/mL (≈ 0.229 µM); in experiment [1] (setting [7]), 0.25 µg/mL (≈ 0.457 µM); in experiment [1] (setting [8]), 0.25 µg/mL (≈ 0.457 µM); in experiment [1] (setting [9]), 0.25 µg/mL (≈ 0.457 µM); in experiment [1] (setting [10]), 0.25 µg/mL (≈ 0.457 µM). The same molecule showed an MIC in experiment [3] of 0.25 µg/mL (≈ 0.457 µM). Further, the “MIC with E-test” value in experiment [2] was no more than 0.5 µg/mL.
With `CO/N=C(\C(=O)N[C@@H]1C(=O)N2C(C(=O)O)=C(COC(C)=O)CS[C@H]12)c1csc(N)n1` [Cefotaxime], the MIC came to 0.06 µg/mL (≈ 0.132 µM) in experiment [1] (setting [13]); 0.06 µg/mL (≈ 0.132 µM) in experiment [1] (setting [4]); 0.06 µg/mL (≈ 0.132 µM) in experiment [1] (setting [14]); 0.06 µg/mL (≈ 0.132 µM) in experiment [1] (setting [15]); 0.03 µg/mL (≈ 0.0659 µM) in experiment [1] (setting [5]); 0.03 µg/mL (≈ 0.0659 µM) in experiment [1] (setting [6]). Moreover, the MIC in experiment [1] (setting [7]) was found to be 0.125 µg/mL (≈ 0.274 µM); in experiment [1] (setting [8]) it was 0.125 µg/mL (≈ 0.274 µM); in experiment [1] (setting [9]), 0.06 µg/mL (≈ 0.132 µM); in experiment [1] (setting [10]) it was 0.06 µg/mL (≈ 0.132 µM); in experiment [3], 0.125 µg/mL (≈ 0.274 µM). In experiment [2], the “MIC with E-test” value was no more than 0.5 µg/mL.
Regarding Piperacillin and Tazobactam, the “MIC, 4 hours” value in experiment [1] (setting [16]) stood at 4 µg/mL; in experiment [1] (cut-off 10%, 4 hours), 4 µg/mL; in experiment [1] (cut-off 15%, 4 hours), 4 µg/mL; in experiment [1] (cut-off 20%, 4 hours) it was 4 µg/mL. The “MIC, 6 hours” value amounted to 4 µg/mL in experiment [1] (cut-off 5%, 6 hours); 4 µg/mL in experiment [1] (cut-off 10%, 6 hours); 4 µg/mL in experiment [1] (cut-off 15%, 6 hours); 2 µg/mL in experiment [1] (cut-off 20%, 6 hours). The “MIC, 24 hours” value in experiment [1] (cut-off 5%, 24 hours) was 4 µg/mL; in experiment [1] (cut-off 10%, 24 hours) it was 4 µg/mL; in experiment [1] (cut-off 15%, 24 hours) it was 4 µg/mL; in experiment [1] (cut-off 20%, 24 hours), 2 µg/mL. Also, in experiment [2], the “MIC with E-test” value is 2 µg/mL. Further, in experiment [3], the “MIC with Macrobroth dilution” value lay within 4 to 8 µg/mL.
